Values after ≈ are worked out from the molar mass of the structure shown.
What was measured:
[1] = test system: Mycobacterium tuberculosis; assay: Antitubercular activity against dormant phase Mycobacterium tuberculosis H37Ra ATCC 25177 incubated for 12 days by XTT reduction menadione assay; assay type: functional, organism-based; conditions: 288 h
[2] = Antioxidant activity assessed as DPPH radical scavenging activity after 30 mins by spectrophotometric analysis; assay type: physicochemical
[3] = Cytotoxicity against human THP1 cells assessed as growth inhibition after 48 hrs by MTT assay; assay type: cell-based, THP-1; conditions: for GI50 at 48 h: THP1 cells; for GI90: thp-1, 48 h
[4] = (§1) Cytotoxicity against human A549 cells assessed as growth inhibition after 48 hrs by MTT assay; assay type: cell-based; conditions: A549 cells
[5] = test system: A549; assay: as §1; assay type: cell-based; conditions: a549, 48 h
[6] = Cytotoxicity against human PANC1 cells assessed as growth inhibition after 48 hrs by MTT assay; assay type: cell-based, PANC-1; conditions: for GI50 at 48 h: PANC1 cells; for GI90: panc-1, 48 h
[7] = Selectivity index, ratio of GI50 for human THP1 cells to MIC for dormant phase Mycobacterium tuberculosis H37Ra ATCC 25177; assay type: toxicity, cell-based, THP-1; conditions: read-out: Selectivity Index
[8] = Selectivity index, ratio of GI50 for human A549 cells to MIC for dormant phase Mycobacterium tuberculosis H37Ra ATCC 25177; assay type: toxicity, cell-based; conditions: read-out: Selectivity Index
[9] = Selectivity index, ratio of GI50 for human PANC1 cells to MIC for dormant phase Mycobacterium tuberculosis H37Ra ATCC 25177; assay type: toxicity, cell-based, PANC-1; conditions: read-out: Selectivity Index

Structure (SMILES)	IC50 [1] [µg/mL]	MIC [1] [µg/mL]	IC50 [2] [µg/mL]	GI50 at 48 h [3] [µg/mL]	GI90 [3] [µg/mL]	GI50 at 48 h [4] [µg/mL]	GI90 [5] [µg/mL]	GI50 at 48 h [6] [µg/mL]	GI90 [6] [µg/mL]	selectivity ratio [7]	selectivity ratio [8]	selectivity ratio [9]
Cc1ccc(OCc2cn(Cc3ccc([N+](=O)[O-])cc3)nn2)cc1	1.1 (≈ 3.39 µM)	29.9 (≈ 92.2 µM)	10.9 (≈ 33.6 µM)	14.2 (≈ 43.8 µM)	66.4 (≈ 205 µM)	> 100	> 100	> 100	> 100	0.5	> 3.3	> 3.3
O=[N+]([O-])c1ccc(Cn2cc(COc3c(Cl)cc(Cl)cc3Cl)nn2)cc1	2.2 (≈ 5.32 µM)	> 30	28.9 (≈ 69.9 µM)	–	–	–	–	–	–	–	–	–
Cc1ccc(OCc2cn(Cc3ccc(Cl)cc3)nn2)cc1	2.5 (≈ 7.97 µM)	24.2 (≈ 77.1 µM)	17.3 (≈ 55.1 µM)	74.1 (≈ 236 µM)	> 100	> 100	> 100	> 100	> 100	3.1	> 4.1	> 4.1
O=[N+]([O-])c1ccc(Cn2cc(COc3ccccc3)nn2)cc1	1.7 (≈ 5.48 µM)	28 (≈ 90.2 µM)	10.1 (≈ 32.5 µM)	62.9 (≈ 203 µM)	> 100	> 100	> 100	> 100	> 100	2.2	> 3.6	> 3.6
Cc1ccc(OCc2cn(Cc3cccc(Cl)c3)nn2)cc1	3 (≈ 9.56 µM)	28.9 (≈ 92.1 µM)	16.3 (≈ 51.9 µM)	36.7 (≈ 117 µM)	93.1 (≈ 297 µM)	> 100	> 100	> 100	> 100	1.3	> 3.5	> 3.5
Brc1ccc(Cn2cc(COc3ccccc3)nn2)cc1	3.2 (≈ 9.3 µM)	28.9 (≈ 84 µM)	18.3 (≈ 53.2 µM)	16.2 (≈ 47.1 µM)	68.3 (≈ 198 µM)	> 100	> 100	> 100	> 100	0.6	> 3.5	> 3.5
Cc1cc(C(C)(C)C)c(O)c(C(C)(C)C)c1 [BUTYLATED HYDROXYTOLUENE]	–	–	16.5 (≈ 74.9 µM)	–	–	–	–	–	–	–	–	–
O=[N+]([O-])c1cccc(Cn2cc(COc3ccc(Cl)cc3)nn2)c1	2.6 (≈ 7.54 µM)	29.2 (≈ 84.7 µM)	21.3 (≈ 61.8 µM)	34.9 (≈ 101 µM)	97.6 (≈ 283 µM)	> 100	> 100	> 100	> 100	1.2	> 3.4	> 3.4
O=[N+]([O-])c1ccc(OCc2cn(Cc3ccc(Br)cc3)nn2)c(I)c1	25 (≈ 48.5 µM)	> 30	18.5 (≈ 35.9 µM)	–	–	–	–	–	–	–	–	–
O=[N+]([O-])c1cccc(OCc2cn(Cc3ccc(Cl)cc3)nn2)c1	53.4 (≈ 155 µM)	> 100	37.3 (≈ 108 µM)	–	–	–	–	–	–	–	–	–
O=[N+]([O-])c1cccc(Cn2cc(COc3cccc([N+](=O)[O-])c3)nn2)c1	8.3 (≈ 23.4 µM)	> 30	19.1 (≈ 53.8 µM)	–	–	–	–	–	–	–	–	–
CC(=O)O[C@H]1C(=O)[C@@]2(C)[C@H]([C@H](OC(=O)c3ccccc3)[C@]3(O)C[C@H](OC(=O)[C@H](O)[C@@H](NC(=O)c4ccccc4)c4ccccc4)C(C)=C1C3(C)C)[C@]1(OC(C)=O)CO[C@@H]1C[C@@H]2O [PACLITAXEL]	–	–	–	0.14 (≈ 0.164 µM)	5.82 (≈ 6.82 µM)	0.13 (≈ 0.152 µM)	5.72 (≈ 6.7 µM)	0.004 (≈ 0.00468 µM)	0.07 (≈ 0.082 µM)	> 2330	> 2330	> 2330
Cc1cc(OCc2cn(Cc3cccc([N+](=O)[O-])c3)nn2)ccc1Cl	2.2 (≈ 6.13 µM)	> 30	15.6 (≈ 43.5 µM)	–	–	–	–	–	–	–	–	–
O=[N+]([O-])c1ccc(Cn2cc(COc3cccc([N+](=O)[O-])c3)nn2)cc1	> 100	> 100	17.1 (≈ 48.1 µM)	–	–	–	–	–	–	–	–	–
O=C1O[C@H]([C@@H](O)CO)C(O)=C1O [ASCORBIC ACID]	–	–	12.7 (≈ 72.1 µM)	–	–	–	–	–	–	–	–	–
Clc1cc(Cl)c(OCc2cn(Cc3ccc(Br)cc3)nn2)c(Cl)c1	0.9 (≈ 2.01 µM)	27.8 (≈ 62.1 µM)	14 (≈ 31.3 µM)	58.7 (≈ 131 µM)	> 100	> 100	> 100	> 100	> 100	2.1	> 3.6	> 3.6
Clc1cccc(Cn2cc(COc3ccccc3)nn2)c1	2.4 (≈ 8.01 µM)	27.7 (≈ 92.4 µM)	27.3 (≈ 91.1 µM)	14.6 (≈ 48.7 µM)	54.3 (≈ 181 µM)	> 100	> 100	> 100	> 100	0.5	> 3.6	> 3.6

Structure (SMILES)	IC50 [1] [µg/mL]	MIC [1] [µg/mL]	IC50 [2] [µg/mL]	GI50 at 48 h [3] [µg/mL]	GI90 [3] [µg/mL]	GI50 at 48 h [4] [µg/mL]	GI90 [5] [µg/mL]	GI50 at 48 h [6] [µg/mL]	GI90 [6] [µg/mL]	selectivity ratio [7]	selectivity ratio [8]	selectivity ratio [9]
Clc1ccc(Cn2cc(COc3c(Cl)cc(Cl)cc3Cl)nn2)cc1	0.8 (≈ 1.98 µM)	7.7 (≈ 19.1 µM)	27.2 (≈ 67.5 µM)	25.1 (≈ 62.3 µM)	> 100	> 100	> 100	> 100	> 100	3.2	> 12.9	> 12.9
Clc1cccc(Cn2cc(COc3c(Cl)cc(Cl)cc3Cl)nn2)c1	2.2 (≈ 5.46 µM)	> 30	16.4 (≈ 40.7 µM)	–	–	–	–	–	–	–	–	–
Cc1ccc(OCc2cn(Cc3cccc([N+](=O)[O-])c3)nn2)cc1	2.4 (≈ 7.4 µM)	> 30	12.1 (≈ 37.3 µM)	–	–	–	–	–	–	–	–	–
Clc1ccc(Cn2cc(COc3ccccc3)nn2)cc1	3.5 (≈ 11.7 µM)	29.9 (≈ 99.7 µM)	26.1 (≈ 87.1 µM)	36.4 (≈ 121 µM)	> 100	> 100	> 100	> 100	> 100	1.2	> 3.3	> 3.3
Cc1cc(OCc2cn(Cc3ccc(Cl)cc3)nn2)ccc1Cl	0.2 (≈ 0.574 µM)	26.9 (≈ 77.2 µM)	11.4 (≈ 32.7 µM)	31.2 (≈ 89.6 µM)	88.1 (≈ 253 µM)	> 100	> 100	> 100	> 100	1.2	> 3.7	> 3.7
Cc1ccc(OCc2cn(Cc3ccc(Br)cc3)nn2)cc1	7.8 (≈ 21.8 µM)	> 30	16.3 (≈ 45.5 µM)	–	–	–	–	–	–	–	–	–
O=[N+]([O-])c1ccc(Cn2cc(COc3ccc(Cl)cc3)nn2)cc1	3.6 (≈ 10.4 µM)	27.5 (≈ 79.8 µM)	24.2 (≈ 70.2 µM)	31.1 (≈ 90.2 µM)	88.9 (≈ 258 µM)	> 100	> 100	> 100	> 100	1.1	> 3.6	> 3.6
Clc1ccc(OCc2cn(Cc3ccc(Br)cc3)nn2)cc1	0.5 (≈ 1.32 µM)	5.8 (≈ 15.3 µM)	11 (≈ 29.1 µM)	52.9 (≈ 140 µM)	> 100	> 100	> 100	> 100	> 100	9.2	> 17.3	> 17.3
CO[C@H]1/C=C/O[C@@]2(C)Oc3c(C)c(O)c4c(O)c(c(/C=N/N5CCN(C)CC5)c(O)c4c3C2=O)NC(=O)/C(C)=C\C=C\[C@H](C)[C@H](O)[C@@H](C)[C@@H](O)[C@@H](C)[C@H](OC(C)=O)[C@@H]1C [RIFAMPIN]	0.002 (≈ 0.00243 µM)	0.04 (≈ 0.0486 µM)	–	–	–	–	–	–	–	–	–	–
Cc1cc(OCc2cn(Cc3ccc(Br)cc3)nn2)ccc1Cl	2.4 (≈ 6.11 µM)	> 30	16.5 (≈ 42 µM)	–	–	–	–	–	–	–	–	–
O=[N+]([O-])c1cccc(OCc2cn(Cc3ccc(Br)cc3)nn2)c1	43.2 (≈ 111 µM)	> 100	29.4 (≈ 75.5 µM)	–	–	–	–	–	–	–	–	–
Cc1cc(OCc2cn(Cc3ccc([N+](=O)[O-])cc3)nn2)ccc1Cl	0.8 (≈ 2.23 µM)	28.2 (≈ 78.6 µM)	13.4 (≈ 37.3 µM)	27.9 (≈ 77.8 µM)	84.3 (≈ 235 µM)	> 100	> 100	> 100	> 100	1	> 3.6	> 3.6
O=[N+]([O-])c1cccc(Cn2cc(COc3ccccc3)nn2)c1	2.4 (≈ 7.73 µM)	> 30	25.3 (≈ 81.5 µM)	–	–	–	–	–	–	–	–	–
Clc1ccc(OCc2cn(Cc3cccc(Cl)c3)nn2)cc1	2.9 (≈ 8.68 µM)	25.8 (≈ 77.2 µM)	23.3 (≈ 69.7 µM)	20.9 (≈ 62.5 µM)	> 100	> 100	> 100	> 100	> 100	0.8	> 3.9	> 3.9
O=[N+]([O-])c1cccc(OCc2cn(Cc3cccc(Cl)c3)nn2)c1	26.6 (≈ 77.2 µM)	> 100	31.2 (≈ 90.5 µM)	–	–	–	–	–	–	–	–	–
O=[N+]([O-])c1cccc(Cn2cc(COc3c(Cl)cc(Cl)cc3Cl)nn2)c1	2.6 (≈ 6.29 µM)	> 30	29.2 (≈ 70.6 µM)	–	–	–	–	–	–	–	–	–
